Some test systems named below: PC-3 prostate; SF-295 CNS; T-47D breast; RXF 393 renal; NCI-H23 lung; A498 renal; MDA-MB-435; NCI-H460 lung; OVCAR-5 ovarian; HOP-18 NSCLC; DLD-1 colon; KM20L2 colon.
Holding throughout (assay): NCI tumour cell line growth inhibition, 48 h

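48-hour exposure; five concentrations; linearly interpolated endpoints. GI50 = concentration required for 50% inhibition of growth. At the TGI there is no net growth.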 Where a SMILES comes first, the peptide text is derived from it. The star is where a group is joined. Cbz = O=C(OCc1ccccc1)*; Bn = c1ccc(C*)cc1

As for `COC(=O)C(Cc1ccc(O)cc1)NC(=O)C(COCc1ccccc1)NC(=O)OCc1ccccc1` (centres undefined) (Cbz-Ser(Bn)-Tyr-OMe; configuration not given here), the TGI with PC-3 prostate was 33.3 µM; in the experiment with SF-295 CNS it was 35.3 µM; with T-47D breast, 39.5 µM; with RXF 393 renal, 33.9 µM; in the experiment with NCI-H23 lung it was 42.8 µM; in the experiment on A498 renal, 58 µM. The TGI came out at 34.1 µM with MDA-MB-435, 14.3 µM with NCI-H460 lung and 36.7 µM in the experiment on OVCAR-5 ovarian.
With `C1CSCCSCSCCS1`, the TGI with PC-3 prostate, in the experiment on SF-295 CNS, in the experiment with T-47D breast, in the experiment with RXF 393 renal, in the experiment on NCI-H23 lung and with A498 renal was greater than 100 µM in each case. For the same compound, the TGI in the experiment on MDA-MB-435, in the experiment on NCI-H460 lung and with OVCAR-5 ovarian was greater than 100 µM each time.
As for `CC1C[C@]2(C[C@@H](C)C(=O)O2)OC2CC3(C)C4CCC5C(C)(C)OC(=O)CC[C@@]56C[C@@]46CC[C@]3(C)C12` (some centres undefined), the TGI in the experiment on SF-295 CNS, with HOP-18 NSCLC, with RXF 393 renal, with NCI-H23 lung, in the experiment with A498 renal and in the experiment with DLD-1 colon was greater than 100 µM in each case. Moreover, the TGI with NCI-H460 lung and in the experiment with OVCAR-5 ovarian was greater than 100 µM each time.
For `NC(CCP(=O)(O)O)C(=O)O` (centres undefined), the TGI with PC-3 prostate, in the experiment with SF-295 CNS, in the experiment with T-47D breast, in the experiment on RXF 393 renal, in the experiment with NCI-H23 lung and in the experiment with A498 renal was greater than 100 µM throughout. For the same compound, the TGI in the experiment with MDA-MB-435, with NCI-H460 lung and in the experiment with OVCAR-5 ovarian was greater than 100 µM throughout.
For `CS(=O)(=O)c1ccc2nc(-c3ccc(O)cc3)sc2c1`, the TGI in the experiment on PC-3 prostate is 32.1 µM; in the experiment on SF-295 CNS, 30.3 µM; in the experiment with RXF 393 renal, 32.9 µM; with NCI-H23 lung, 39.6 µM; in the experiment on A498 renal, 31.2 µM; with MDA-MB-435 it was 37.8 µM. Besides, the values for the TGI with NCI-H460 lung and in the experiment on OVCAR-5 ovarian were 35.3 µM and 31.6 µM, respectively.
For `O=S(=O)(O)c1ccc2c(N=Nc3ccc(S(=O)(=O)O)c4ccccc34)c(O)c(S(=O)(=O)O)cc2c1`, the TGI with PC-3 prostate, with SF-295 CNS, with T-47D breast, with RXF 393 renal, in the experiment with NCI-H23 lung and in the experiment on A498 renal was greater than 100 µM in each case. Further, the TGI with MDA-MB-435, in the experiment with NCI-H460 lung and in the experiment on OVCAR-5 ovarian was greater than 100 µM in each case.
Take `O=C(Nc1ccc(Cl)cc1)c1cc([N+](=O)[O-])ccc1O`: the TGI with SF-295 CNS was 30.4 µM; in the experiment on HOP-18 NSCLC, 7.16 µM; in the experiment with RXF 393 renal, 6.64 µM; in the experiment on KM20L2 colon it was greater than 50.9 µM; in the experiment on NCI-H23 lung it was 6.66 µM; with A498 renal it was 11.2 µM. Moreover, the TGI in the experiment with DLD-1 colon is greater than 100 µM; in the experiment with NCI-H460 lung, greater than 79.8 µM; with OVCAR-5 ovarian, 81.6 µM.
Turning to `O=[N+]([O-])c1cc(N=Nc2c(O)ccc3cc(S(=O)(=O)O)ccc23)c(O)c([N+](=O)[O-])c1`, the TGI in the experiment on PC-3 prostate, in the experiment on SF-295 CNS, with T-47D breast, in the experiment on RXF 393 renal, in the experiment with NCI-H23 lung and in the experiment on MDA-MB-435 was greater than 100 µM in each case. The TGI in the experiment with OVCAR-5 ovarian was greater than 100 µM.
Consider `CCCCSCC(NC(=O)/C=C/c1c(C)[nH]c(=O)[nH]c1=O)C(=O)OC` (centres undefined), for which the TGI was 272 µM in the experiment with SF-295 CNS; 330 µM with HOP-18 NSCLC; 267 µM in the experiment with RXF 393 renal; 355 µM in the experiment on KM20L2 colon; 339 µM in the experiment on NCI-H23 lung; 224 µM with A498 renal. The TGI in the experiment with DLD-1 colon worked out at 275 µM; in the experiment on NCI-H460 lung, 177 µM; with OVCAR-5 ovarian it was 300 µM.
Consider `c1ccc(-c2n(Cc3ccc4ccccc4c3)c3ccccc3[n+]2Cc2ccc3ccccc3c2)cc1`, for which the GI50 is 0.27 µM in the experiment on PC-3 prostate; 0.306 µM in the experiment on SF-295 CNS; less than 0.043 µM with A498 renal; 0.288 µM with MDA-MB-435; 0.44 µM in the experiment on OVCAR-5 ovarian. In addition, the TGI in the experiment on PC-3 prostate came to 1.13 µM; in the experiment with SF-295 CNS, 1.11 µM; in the experiment with A498 renal, 0.933 µM; in the experiment on MDA-MB-435 it was 1.06 µM; with OVCAR-5 ovarian, 1.76 µM.
Take `COc1ccc(-c2oc3cc(OC(C)=O)cc(OC(C)=O)c3c(=O)c2OC)cc1`: the TGI with PC-3 prostate is 59 µM; in the experiment on SF-295 CNS, 37.8 µM; with T-47D breast, 57.9 µM; with A498 renal, 61.1 µM; with MDA-MB-435, 25.4 µM; in the experiment with NCI-H460 lung, 37.5 µM. The same compound yielded a TGI in the experiment on OVCAR-5 ovarian of 47.3 µM.
With `O=C1c2cccc(O)c2C(=O)c2c(O)cccc21`, the TGI with SF-295 CNS, in the experiment on RXF 393 renal, in the experiment with KM20L2 colon, with NCI-H23 lung, with A498 renal and in the experiment on DLD-1 colon was greater than 100 µM throughout. The TGI in the experiment on NCI-H460 lung and in the experiment with OVCAR-5 ovarian was greater than 100 µM throughout.
On to `C[n+]1c2ccccc2c(CNCC(=O)O)c2ccccc21`, for which the TGI in the experiment with SF-295 CNS is 17.2 µM; in the experiment with HOP-18 NSCLC it was 22.6 µM; with RXF 393 renal, 6.5 µM; in the experiment with KM20L2 colon it was 2.44 µM; with NCI-H23 lung, 24.8 µM; in the experiment on A498 renal, 7.43 µM. In addition, the TGI came out at 2 µM in the experiment with DLD-1 colon, 14.8 µM with NCI-H460 lung and 28.5 µM with OVCAR-5 ovarian.
For `CC(=O)OCC1OC(NC(=O)N(CCCl)N=O)C(OC(C)=O)C(OC(C)=O)C1OC(C)=O` (centres undefined), the TGI with SF-295 CNS, with HOP-18 NSCLC, with RXF 393 renal, with KM20L2 colon, in the experiment on NCI-H23 lung and with A498 renal was greater than 100 µM each time. The TGI with DLD-1 colon, with NCI-H460 lung and in the experiment on OVCAR-5 ovarian was greater than 100 µM throughout.
With `NC(=O)c1ccc([N+](=O)[O-])cc1`, the TGI in the experiment on SF-295 CNS, in the experiment with RXF 393 renal, in the experiment on KM20L2 colon, in the experiment with NCI-H23 lung, in the experiment on A498 renal and in the experiment with DLD-1 colon was greater than 100 µM each time. In the experiment on NCI-H460 lung, this compound came in with a TGI greater than 100 µM.
As to `C=CCNC1=C2C[C@@H](C)C[C@H](OC)[C@H](O)[C@@H](C)/C=C(\C)[C@H](OC(N)=O)[C@@H](OC)/C=C\C=C(/C)C(=O)NC(=CC1=O)C2=O`, the TGI in the experiment on PC-3 prostate was 40.7 µM; with SF-295 CNS it was 7.46 µM; with T-47D breast, 29.5 µM; in the experiment on RXF 393 renal, 10.1 µM; in the experiment on NCI-H23 lung it was 8.3 µM; with A498 renal, 30 µM. The TGI in the experiment on MDA-MB-435 stood at 17 µM; in the experiment with NCI-H460 lung it was 15.9 µM; in the experiment on OVCAR-5 ovarian, 22.6 µM.
As to `COc1ccc2c(c1)C(OC)C1c3c(cc4c(c3-2)OCO4)CCN1C` (centres undefined), the TGI in the experiment on PC-3 prostate was 9.34 µM; with SF-295 CNS it was 11.7 µM; with T-47D breast, greater than 63.7 µM; in the experiment on RXF 393 renal it was 6.43 µM; with NCI-H23 lung, 11.1 µM; in the experiment on A498 renal, 4.96 µM. The TGI in the experiment with MDA-MB-435 worked out at 13.1 µM; in the experiment on NCI-H460 lung, 8.83 µM; with OVCAR-5 ovarian it was 16.8 µM.
Consider `N=C(N)c1ccc(-c2ccc(-c3ccc4ccccc4c3)s2)s1`, for which the GI50 is 2.19 µM with PC-3 prostate; 2.27 µM in the experiment on SF-295 CNS; 1.95 µM in the experiment on T-47D breast; 2.96 µM with NCI-H23 lung; 1.7 µM with A498 renal; 1.91 µM in the experiment on MDA-MB-435. The GI50 with NCI-H460 lung is 1.95 µM. For the same compound, the TGI is 4.87 µM in the experiment with PC-3 prostate; 5.99 µM in the experiment on SF-295 CNS; 4.52 µM in the experiment with T-47D breast; 11.1 µM in the experiment on NCI-H23 lung; 10.5 µM in the experiment with A498 renal; 4.08 µM in the experiment on MDA-MB-435. Also, the TGI in the experiment with NCI-H460 lung was found to be 3.7 µM.
Take `CCn1c(=O)c(C(=O)O)c(Cl)c2cc3c(cc21)OCO3`: the TGI in the experiment with SF-295 CNS, in the experiment on HOP-18 NSCLC, in the experiment with RXF 393 renal, in the experiment with KM20L2 colon, in the experiment on NCI-H23 lung and in the experiment with A498 renal was greater than 100 µM throughout. For the same compound, the TGI with DLD-1 colon, in the experiment with NCI-H460 lung and in the experiment on OVCAR-5 ovarian was greater than 100 µM each time.
Consider `C[P+](c1ccccc1)(c1ccc(Cl)cc1)c1ccc(Cl)cc1`, for which the TGI was 70.6 µM in the experiment with PC-3 prostate; 49.3 µM in the experiment with T-47D breast; greater than 100 µM with RXF 393 renal; 31.6 µM with NCI-H23 lung; 98.3 µM in the experiment on A498 renal; 18.7 µM with MDA-MB-435. Also, the figures for the TGI with NCI-H460 lung and in the experiment with OVCAR-5 ovarian were greater than 100 µM and 71.5 µM, respectively.
For `COc1ccc(N2C(=O)/C(=C\c3ccccc3)SC2c2cc(OC)c(OC)c(OC)c2)cc1` (centres undefined), the TGI in the experiment with PC-3 prostate, in the experiment on SF-295 CNS, with T-47D breast, in the experiment with RXF 393 renal, with NCI-H23 lung and in the experiment on A498 renal was greater than 100 µM throughout. Also, the TGI with MDA-MB-435 is 79.7 µM; with OVCAR-5 ovarian it was greater than 100 µM.

Values taken from PubChem BioAssay (NCI).
